Measurements published in PubChem BioAssay (NCI).
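The compound was tested at five concentrations on cells cultured in 96-well plates, with a 48-hour exposure period. The concentration for full growth arrest is given as TGI.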

Key:
Assay in all cases: NCI-60 cell line screen, 48 h
786-0 renal = test system: 786-0 renal
A498 renal = test system: A498 renal
A549 NSCLC = test system: A549 NSCLC
ACHN renal = test system: ACHN renal
CCRF-CEM leukemia = test system: CCRF-CEM leukemia
COLO 205 colon = test system: COLO 205 colon
DLD-1 colon = test system: DLD-1 colon
DMS 114 small cell lung = test system: DMS 114 small cell lung
DMS 273 small cell lung = test system: DMS 273 small cell lung
EKVX NSCLC = test system: EKVX NSCLC
HCC-2998 colon = test system: HCC-2998 colon
HCT-116 colon = test system: HCT-116 colon
HCT-15 colon = test system: HCT-15 colon
HL-60(TB) leukemia = test system: HL-60(TB) leukemia
HOP-18 NSCLC = test system: HOP-18 NSCLC
HOP-62 NSCLC = test system: HOP-62 NSCLC
HOP-92 NSCLC = test system: HOP-92 NSCLC
HT29 colon = test system: HT29 colon
IGROV1 ovarian = test system: IGROV1 ovarian
K-562 leukemia = test system: K-562 leukemia
KM12 colon = test system: KM12 colon
KM20L2 colon = test system: KM20L2 colon
LOX IMVI melanoma = test system: LOX IMVI melanoma
M14 melanoma = test system: M14 melanoma
M19-MEL melanoma = test system: M19-MEL melanoma
MOLT-4 leukemia = test system: MOLT-4 leukemia
NCI-H226 lung = test system: NCI-H226 lung
NCI-H23 lung = test system: NCI-H23 lung
NCI-H460 lung = test system: NCI-H460 lung
NCI-H522 lung = test system: NCI-H522 lung
OVCAR-3 ovarian = test system: OVCAR-3 ovarian
OVCAR-4 ovarian = test system: OVCAR-4 ovarian
OVCAR-8 ovarian = test system: OVCAR-8 ovarian
RPMI-8226 leukemia = test system: RPMI-8226 leukemia
RXF 393 renal = test system: RXF 393 renal
SF-268 CNS = test system: SF-268 CNS
SF-295 CNS = test system: SF-295 CNS
SF-539 CNS = test system: SF-539 CNS
SK-MEL-2 melanoma = test system: SK-MEL-2 melanoma
SK-MEL-28 melanoma = test system: SK-MEL-28 melanoma
SK-MEL-5 melanoma = test system: SK-MEL-5 melanoma
SK-OV-3 ovarian = test system: SK-OV-3 ovarian
SN12C renal = test system: SN12C renal
SNB-19 CNS = test system: SNB-19 CNS
SNB-75 CNS = test system: SNB-75 CNS
SNB-78 CNS = test system: SNB-78 CNS
SW-620 colon = test system: SW-620 colon
TK-10 renal = test system: TK-10 renal
U251 CNS = test system: U251 CNS
UACC-257 melanoma = test system: UACC-257 melanoma
UACC-62 melanoma = test system: UACC-62 melanoma
UO-31 renal = test system: UO-31 renal
XF 498 CNS = test system: XF 498 CNS
CAKI-1 renal = test system: CAKI-1 renal
LXFL 529 NSCLC = test system: LXFL 529 NSCLC
MALME-3M melanoma = test system: MALME-3M melanoma
OVCAR-5 ovarian = test system: OVCAR-5 ovarian

In the case of `O=C(NCC(=O)N1CCOC1=O)OCc1ccccc1`, the TGI (786-0 renal) is reported as > 100 µM, the TGI (A498 renal) is reported as > 100 µM and the TGI (A549 NSCLC) is reported as > 100 µM. For the same compound, the TGI (ACHN renal) was > 100 µM, the TGI (CCRF-CEM leukemia) was > 100 µM and the TGI (COLO 205 colon) was > 100 µM. For the same compound, the TGI (DLD-1 colon) was > 100 µM, the TGI (DMS 114 small cell lung) was > 100 µM and the TGI (DMS 273 small cell lung) was > 100 µM. For the same compound, the TGI (EKVX NSCLC) was > 100 µM, the TGI (HCC-2998 colon) was > 100 µM and the TGI (HCT-116 colon) was > 100 µM. The TGI (HCT-15 colon) was > 100 µM, the TGI (HL-60(TB) leukemia) was > 100 µM and the TGI (HOP-18 NSCLC) was > 100 µM. The TGI (HOP-62 NSCLC) was > 100 µM, the TGI (HOP-92 NSCLC) was > 100 µM and the TGI (HT29 colon) was > 100 µM. The TGI (IGROV1 ovarian) was > 100 µM, the TGI (K-562 leukemia) was > 100 µM and the TGI (KM12 colon) was > 100 µM. The TGI (KM20L2 colon) was > 100 µM, the TGI (LOX IMVI melanoma) was > 100 µM and the TGI (M14 melanoma) was > 100 µM. For the same compound, the TGI (M19-MEL melanoma) was > 100 µM, the TGI (MOLT-4 leukemia) was > 100 µM and the TGI (NCI-H226 lung) was > 100 µM. The TGI (NCI-H23 lung) was > 100 µM, the TGI (NCI-H460 lung) was > 100 µM and the TGI (NCI-H522 lung) was > 100 µM. The TGI (OVCAR-3 ovarian) was > 100 µM, the TGI (OVCAR-4 ovarian) was > 100 µM and the TGI (OVCAR-8 ovarian) was > 100 µM. The TGI (RPMI-8226 leukemia) was > 100 µM, the TGI (RXF 393 renal) was > 100 µM and the TGI (SF-268 CNS) was > 100 µM. For the same compound, the TGI (SF-295 CNS) was > 100 µM, the TGI (SF-539 CNS) was > 100 µM and the TGI (SK-MEL-2 melanoma) was > 100 µM. The TGI (SK-MEL-28 melanoma) was > 100 µM, the TGI (SK-MEL-5 melanoma) was > 100 µM and the TGI (SK-OV-3 ovarian) was > 100 µM. The TGI (SN12C renal) was > 100 µM, the TGI (SNB-19 CNS) was > 100 µM and the TGI (SNB-75 CNS) was > 100 µM. For the same compound, the TGI (SNB-78 CNS) was > 100 µM, the TGI (SW-620 colon) was > 100 µM and the TGI (TK-10 renal) was > 100 µM. For the same compound, the TGI (U251 CNS) was > 100 µM, the TGI (UACC-257 melanoma) was > 100 µM and the TGI (UACC-62 melanoma) was > 100 µM. For the same compound, the TGI (UO-31 renal) was > 100 µM and the TGI (XF 498 CNS) was > 100 µM.

`CCC1C(=O)OCc2c1cc1n(c2=O)C(CC)c2c-1nc1ccccc1c2Cl` (stereo not drawn) was tested, and the TGI (786-0 renal) was 33.9 µM, the TGI (A498 renal) was 58.1 µM and the TGI (A549 NSCLC) was > 100 µM. The TGI (ACHN renal) was > 100 µM, the TGI (CAKI-1 renal) was > 100 µM and the TGI (CCRF-CEM leukemia) was > 100 µM. For the same compound, the TGI (COLO 205 colon) was 37 µM, the TGI (DLD-1 colon) was > 100 µM and the TGI (DMS 273 small cell lung) was > 100 µM. The TGI (EKVX NSCLC) was 80.4 µM, the TGI (HCT-15 colon) was > 100 µM and the TGI (HL-60(TB) leukemia) was 57.3 µM. The TGI (HOP-18 NSCLC) was 98.2 µM, the TGI (HOP-62 NSCLC) was 87.1 µM and the TGI (HOP-92 NSCLC) was > 100 µM. The TGI (HT29 colon) was 77.1 µM, the TGI (IGROV1 ovarian) was > 100 µM and the TGI (K-562 leukemia) was > 100 µM. The TGI (KM12 colon) was 96.6 µM, the TGI (KM20L2 colon) was > 100 µM and the TGI (LOX IMVI melanoma) was > 100 µM. The TGI (LXFL 529 NSCLC) was > 100 µM, the TGI (M14 melanoma) was > 100 µM and the TGI (M19-MEL melanoma) was > 100 µM. The TGI (MALME-3M melanoma) was > 100 µM, the TGI (MOLT-4 leukemia) was > 100 µM and the TGI (NCI-H226 lung) was > 100 µM. The TGI (NCI-H23 lung) was > 100 µM, the TGI (NCI-H460 lung) was 55.4 µM and the TGI (NCI-H522 lung) was 35 µM. The TGI (OVCAR-3 ovarian) was 47.5 µM, the TGI (OVCAR-4 ovarian) was > 100 µM and the TGI (OVCAR-5 ovarian) was 54.6 µM. For the same compound, the TGI (RPMI-8226 leukemia) was 50 µM, the TGI (SF-268 CNS) was > 100 µM and the TGI (SF-295 CNS) was 66 µM. The TGI (SF-539 CNS) was 41.1 µM, the TGI (SK-MEL-2 melanoma) was 65.4 µM and the TGI (SK-MEL-28 melanoma) was > 100 µM. For the same compound, the TGI (SK-MEL-5 melanoma) was 40.5 µM, the TGI (SK-OV-3 ovarian) was 89 µM and the TGI (SNB-19 CNS) was > 100 µM. The TGI (SNB-78 CNS) was > 100 µM, the TGI (SW-620 colon) was > 100 µM and the TGI (TK-10 renal) was > 100 µM. For the same compound, the TGI (U251 CNS) was 49.4 µM, the TGI (UACC-257 melanoma) was 92.6 µM and the TGI (UACC-62 melanoma) was > 100 µM. For the same compound, the TGI (UO-31 renal) was > 100 µM and the TGI (XF 498 CNS) was 66.5 µM.
